Tested on: senescent MCF7 cells
Experiment: Senolytic activity on doxorubicin-induced senescent MCF7 cells (crystal violet cell survival)
Format: cell-based, human
Conditions: 72 h treatment; vitamin C and palmitic acid administered alone at the same doses investigated
Procedure: Briefly, senescence of MCF7 human mammary epithelium cells (human breast adenocarcinoma cells, ATCC® HTB-22™) was induced in vitro by treatment with doxorubicin (for 24 h), at a non-apoptotic concentration (200 nM), and subsequent cell recovery (in optimal culture medium, without treatments) for 10 days. The successful conversion to the senescent cell phenotype was confirmed by morphological changes (flattening and cell enlargement) and positivity for lysosomal beta-galactosidase (β-GAL). The SA-β-GAL (senescence-associated p-GAL) senescence assay was performed with the SA-β-Gal Staining Kit (Cell Signaling Technology, Inc., Danvers, MA). In this case, after fixation with […] for 15 min at room temperature, the senescent cells were quantified by calculating the percentage of SA-β-GAL positive cells (colored blue) present in culture, examining ≥200 cells per well with the phase contrast microscope EVOS XL Cell Imaging System (Thermo Fisher; objective, 40×). […] At the end of the treatments, cell survival was quantified by crystal violet staining. […] After further washing with water (3×), 100 μl of acetic acid (10%) were added per well and the absorbance (λ=590 nm) measured with a Synergy spectrophotometer (AHSI). […] Senolytic activity was expressed as % of senescent cells eliminated with respect to the control condition (DMSO). […]

SMILES	senolytic effects (in words)
CCCCCCCCCCCCCCCC(=O)O [palmitic acid]	absence of significant senolytic effects
O=C1O[C@H]([C@@H](O)CO)C(O)=C1O [vitamin C, L-Ascorbic Acid]	absence of significant senolytic effects

Source: patent publication US20240024280A1, “SENOTHERAPEUTIC SUBSTANCE” (BIONEXA S.R.L, priority 2020, published 2024)
